Measured values: patent publication US8653087B2, “Pyrido [5, 4-D] pyrimidines as cell proliferation inhibitors” (Boehringer Ingelheim International GmbH, priority 2008, dated 2014)
Read-outs that look alike come from different tables or passages of the source.

Molecular target: B-Raf (V600E)-kinase (Homo sapiens (Human), UniProt P15056, V600E)
Assay: Kinase test B-RAF (V600E)
Type: biochemical
Outline: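 B-Raf (V600E) (0.5 ng) preincubated with compound 24 h at RT (5% DMSO), then reacted 60 min at RT with 250 μM ATP and biotinylated MEK1 as substrate. Phospho-MEK (Ser217/221) captured on streptavidin and detected by europium time-resolved fluorescence; IC50 from dose-response curves.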

[1] = B-RAF (V600E) kinase test, 250 μM ATP

Chain of B-Raf (V600E)-kinase (P15056 whole entry V600E): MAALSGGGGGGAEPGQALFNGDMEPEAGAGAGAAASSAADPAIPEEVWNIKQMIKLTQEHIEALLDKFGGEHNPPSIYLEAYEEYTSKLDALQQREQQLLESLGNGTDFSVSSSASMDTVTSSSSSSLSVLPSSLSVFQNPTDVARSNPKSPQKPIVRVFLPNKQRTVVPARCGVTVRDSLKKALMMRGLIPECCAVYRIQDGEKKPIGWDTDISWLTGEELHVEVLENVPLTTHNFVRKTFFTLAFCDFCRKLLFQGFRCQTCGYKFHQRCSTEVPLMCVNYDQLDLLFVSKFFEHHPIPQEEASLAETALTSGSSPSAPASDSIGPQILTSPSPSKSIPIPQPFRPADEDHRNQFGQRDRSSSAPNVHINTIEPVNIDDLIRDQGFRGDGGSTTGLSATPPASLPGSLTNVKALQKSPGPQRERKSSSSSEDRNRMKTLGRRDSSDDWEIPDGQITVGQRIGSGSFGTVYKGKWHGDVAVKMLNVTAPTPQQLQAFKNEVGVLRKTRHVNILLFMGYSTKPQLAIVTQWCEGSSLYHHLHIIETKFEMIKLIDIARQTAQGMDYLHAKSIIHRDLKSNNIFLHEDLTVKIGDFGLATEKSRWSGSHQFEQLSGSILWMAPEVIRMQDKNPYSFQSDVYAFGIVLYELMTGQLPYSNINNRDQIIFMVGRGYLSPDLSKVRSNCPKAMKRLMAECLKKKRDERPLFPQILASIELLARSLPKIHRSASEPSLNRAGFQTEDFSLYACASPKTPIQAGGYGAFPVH

## Cc1ccc(C(=O)Nc2cccc(OC(F)(F)F)c2)cc1Nc1ncnc2cnc(N(C)CCN(C)C)nc12 [III-237]
[1]
  IC50: 2 nM

## Cc1ccc(C(=O)Nc2cccc(N(C)C)c2)cc1Nc1ncnc2cnc(N(C)CCN(C)C)nc12 [III-238]
[1]
  IC50: 87 nM

## Cc1ccc(C(=O)Nc2cccc(C(C)(C)C)c2)cc1Nc1ncnc2cnc(N(C)CCN(C)C)nc12 [III-239]
[1]
  IC50: 6 nM

## COc1ccc(C(C)(C)C)cc1NC(=O)c1ccc(C)c(Nc2ncnc3cnc(N(C)CCN(C)C)nc23)c1 [III-240]
[1]
  IC50: 4 nM

## Cc1ccc(C(=O)NCc2ccc(C(C)(C)C)cc2)cc1Nc1ncnc2cnc(N3CC[C@@H](F)C3)nc12 [III-241]
[1]
  IC50: 48 nM

## Cc1ccc(C(=O)NCc2ccc(C(F)(F)F)cc2)cc1Nc1ncnc2cnc(N3CC[C@@H](F)C3)nc12 [III-242]
[1]
  IC50: 19 nM

## Cc1ccc(C(=O)Nc2cccc(N(C)C)c2)cc1Nc1ncnc2cnc(N3CC[C@@H](F)C3)nc12 [III-243]
[1]
  IC50: < 1 nM

## Cc1ccc(C(=O)Nc2cccc(C(C)(C)C)c2)cc1Nc1ncnc2cnc(N3CC[C@@H](F)C3)nc12 [III-244]
[1]
  IC50: < 1 nM

## Cc1ccc(C(=O)NCc2ccc(C(C)(C)C)cc2)cc1Nc1ncnc2cnc(N3CCCCC3)nc12 [III-245]
[1]
  IC50: 460 nM

## Cc1ccc(C(=O)NCc2ccc(C(F)(F)F)cc2)cc1Nc1ncnc2cnc(N3CCCCC3)nc12 [III-246]
[1]
  IC50: 29 nM

## Cc1ccc(C(=O)Nc2cccc(N(C)C)c2)cc1Nc1ncnc2cnc(N3CCCCC3)nc12 [III-247]
[1]
  IC50: 1 nM

## Cc1ccc(C(=O)Nc2cccc(C(C)(C)C)c2)cc1Nc1ncnc2cnc(N3CCCCC3)nc12 [III-248]
[1]
  IC50: 2 nM

## COc1ccc(C(C)(C)C)cc1NC(=O)c1ccc(C)c(Nc2ncnc3cnc(N4CCCCC4)nc23)c1 [III-249]
[1]
  IC50: 10 nM

## Cc1ccc(C(=O)NCc2ccc(C(F)(F)F)cc2)cc1Nc1ncnc2cnc(N3CCCC3)nc12 [III-250]
[1]
  IC50: 40 nM

## Cc1ccc(C(=O)Nc2cccc(S(=O)(=O)N(C)C)c2)cc1Nc1ncnc2cnc(N3CCCN(C)CC3)nc12 [III-251]
[1]
  IC50: 19 nM

## Cc1ccc(C(=O)Nc2ccc3c(c2)C(C)(C)C(=O)N3CCN2CCCC2)cc1Nc1ncnc2cnc(N3CCCN(C)CC3)nc12 [III-252]
[1]
  IC50: 8 nM

## Cc1ccc(C(=O)Nc2ccccc2)cc1Nc1ncnc2cnc(N3CCCCC3)nc12 [III-253]
[1]
  IC50: 269 nM

## Cc1ccc(C(=O)NC2CC2)cc1Nc1ncnc2cnc(N3CCCCC3)nc12 [III-254]
[1]
  IC50: 2000 nM

## Cc1ccc(C(=O)NCC2CCOC2)cc1Nc1ncnc2cnc(N3CCCC3)nc12 (centres unmarked) [III-256]
[1]
  IC50: 15000 nM

## Cc1ccc(C(=O)NCc2cccc(C(F)(F)F)c2)cc1Nc1ncnc2cnc(N3CCCC3)nc12 [III-257]
[1]
  IC50: 61 nM

## Cc1ccc(C(=O)NC2CCCCC2)cc1Nc1ncnc2cnc(N3CCCC3)nc12 [III-258]
[1]
  IC50: 15000 nM

## Cc1ccc(C(=O)Nc2ccccc2)cc1Nc1ncnc2cnc(N3CCCC3)nc12 [III-259]
[1]
  IC50: 505 nM

## Cc1ccc(C(=O)NC2CC2)cc1Nc1ncnc2cnc(N3CCCC3)nc12 [III-260]
[1]
  IC50: 2000 nM

## Cc1ccc(C(=O)Nc2cc(C(F)(F)F)ccn2)cc1Nc1ncnc2cnc(N3CCN(C)CC3)nc12 [III-261]
[1]
  IC50: < 1 nM

## COc1ccc(C(F)(F)F)cc1NC(=O)c1ccc(C)c(Nc2ncnc3cnc(N4CCCCC4)nc23)c1 [III-262]
[1]
  IC50: 9 nM

## Cc1ccc(C(=O)Nc2cccc(N(C)C)c2)cc1Nc1ncnc2cnc(N3CCNCC3)nc12 [III-263]
[1]
  IC50: 15 nM

## Cc1ccc(C(=O)Nc2nnc(C(F)(F)F)s2)cc1Nc1ncnc2cnc(N3CCCC3)nc12 [III-264]
[1]
  IC50: 2600 nM

## Cc1ccc(C(=O)Nc2ccc(F)c(C(F)(F)F)c2)cc1Nc1ncnc2cnc(N3CCCC3)nc12 [III-265]
[1]
  IC50: 4 nM

## Cc1ccc(C(=O)Nc2cccc(C(F)(F)F)c2)cc1Nc1ncnc2cnc(N3CCCC3)nc12 [III-266]
[1]
  IC50: 1 nM

## Cc1ccc(C(=O)NCc2ccc(C(C)(C)C)cc2)cc1Nc1ncnc2cnc(N3CCCC3)nc12 [III-267]
[1]
  IC50: 836 nM

## COc1ccc(C(F)(F)F)cc1NC(=O)c1ccc(C)c(Nc2ncnc3cnc(N4CCCC4)nc23)c1 [III-268]
[1]
  IC50: 120 nM

## Cc1ccc(C(=O)Nc2ccc(Cl)c(C(F)(F)F)c2)cc1Nc1ncnc2cnc(N3CCCC3)nc12 [III-269]
[1]
  IC50: 33 nM

## Cc1ccc(C(=O)Nc2cccc(OC(F)(F)F)c2)cc1Nc1ncnc2cnc(N3CCCC3)nc12 [III-270]
[1]
  IC50: 20 nM

## Cc1ccc(C(=O)Nc2cccc(N(C)C)c2)cc1Nc1ncnc2cnc(N3CCCC3)nc12 [III-271]
[1]
  IC50: 10 nM

## Cc1ccc(C(=O)Nc2cccc(C(C)(C)C)c2)cc1Nc1ncnc2cnc(N3CCCC3)nc12 [III-272]
[1]
  IC50: 2 nM

## Cc1ccc(C(=O)Nc2ccc(C#N)c(C(F)(F)F)c2)cc1Nc1ncnc2cnc(N3CCCC3)nc12 [III-273]
[1]
  IC50: 31 nM

## Cc1ccc(C(=O)Nc2cccc(S(=O)(=O)N(C)C)c2)cc1Nc1ncnc2cnc(N3CCCC3)nc12 [III-274]
[1]
  IC50: 3 nM

## Cc1ccc(C(=O)Nc2cc(C(F)(F)F)ccn2)cc1Nc1ncnc2cnc(N3CCCC3)nc12 [III-275]
[1]
  IC50: 2 nM

## Cc1ccc(C(=O)Nc2cccc(C(C)(C)C#N)c2)cc1Nc1ncnc2cnc(N3CCCC3)nc12 [III-276]
[1]
  IC50: 6 nM

## COc1c(NC(=O)c2ccc(C)c(Nc3ncnc4cnc(N5CCCC5)nc34)c2)cc(C(C)(C)C)cc1NS(C)(=O)=O [III-277]
[1]
  IC50: 23 nM

## Cc1ccc(C(=O)NCc2cccc(C(C)(C)C)c2)cc1Nc1ncnc2cnc(N3CCCC3)nc12 [III-278]
[1]
  IC50: 88 nM

## Cc1ccc(C(=O)Nc2cc(C(F)(F)F)ccn2)cc1Nc1ncnc2cnc(N(C)CCN(C)C)nc12 [III-279]
[1]
  IC50: 6 nM

## Cc1ccc(C(=O)Nc2nnc(C(F)(F)F)s2)cc1Nc1ncnc2cnc(N(C)CCN(C)C)nc12 [III-280]
[1]
  IC50: 10000 nM

## Cc1ccc(C(=O)Nc2ccc(C#N)c(C(F)(F)F)c2)cc1Nc1ncnc2cnc(N(C)CCN(C)C)nc12 [III-281]
[1]
  IC50: 5 nM

## Cc1ccc(C(=O)Nc2nnc(C(F)(F)F)s2)cc1Nc1ncnc2cnc(N3CCCN(C)CC3)nc12 [III-282]
[1]
  IC50: 1400 nM

## Cc1ccc(C(=O)Nc2cc(C(F)(F)F)ccn2)cc1Nc1ncnc2cnc(N3CCCN(C)CC3)nc12 [III-283]
[1]
  IC50: 3 nM

## Cc1ccc(C(=O)Nc2ccc(C#N)c(C(F)(F)F)c2)cc1Nc1ncnc2cnc(N3CCCN(C)CC3)nc12 [III-284]
[1]
  IC50: 3 nM

## Cc1ccc(C(=O)Nc2nnc(C(F)(F)F)s2)cc1Nc1ncnc2cnc(N3CC[C@H](F)C3)nc12 [III-285]
[1]
  IC50: 274 nM

## Cc1ccc(C(=O)Nc2ccc(F)c(C(F)(F)F)c2)cc1Nc1ncnc2cnc(N3CC[C@H](F)C3)nc12 [III-286]
[1]
  IC50: 3 nM

## Cc1ccc(C(=O)Nc2cccc(C(F)(F)F)c2)cc1Nc1ncnc2cnc(N3CC[C@H](F)C3)nc12 [III-287]
[1]
  IC50: 1 nM

## COc1ccc(C(F)(F)F)cc1NC(=O)c1ccc(C)c(Nc2ncnc3cnc(N4CC[C@H](F)C4)nc23)c1 [III-288]
[1]
  IC50: 2 nM

## Cc1ccc(C(=O)Nc2ccc(Cl)c(C(F)(F)F)c2)cc1Nc1ncnc2cnc(N3CC[C@H](F)C3)nc12 [III-289]
[1]
  IC50: 13 nM

## Cc1ccc(C(=O)Nc2cccc(OC(F)(F)F)c2)cc1Nc1ncnc2cnc(N3CC[C@H](F)C3)nc12 [III-290]
[1]
  IC50: 1 nM

## COc1ccc(C(C)(C)C)cc1NC(=O)c1ccc(C)c(Nc2ncnc3cnc(N4CC[C@H](F)C4)nc23)c1 [III-291]
[1]
  IC50: 21 nM

## Cc1ccc(C(=O)Nc2ccc(C#N)c(C(F)(F)F)c2)cc1Nc1ncnc2cnc(N3CC[C@H](F)C3)nc12 [III-292]
[1]
  IC50: 36 nM

## Cc1ccc(C(=O)Nc2cccc(S(=O)(=O)N(C)C)c2)cc1Nc1ncnc2cnc(N3CC[C@H](F)C3)nc12 [III-293]
[1]
  IC50: 7 nM

## Cc1ccc(C(=O)Nc2cccc(C(C)(C)C)c2)cc1Nc1ncnc2cnc(N3CCOCC3)nc12 [III-294]
[1]
  IC50: 1 nM

## COc1c(NC(=O)c2ccc(C)c(Nc3ncnc4cnc(N5CC[C@H](F)C5)nc34)c2)cc(C(C)(C)C)cc1NS(C)(=O)=O [III-295]
[1]
  IC50: 17 nM

## Cc1ccc(C(=O)Nc2nnc(C(F)(F)F)s2)cc1Nc1ncnc2cnc(N3CCN(C)CC3)nc12 [III-296]
[1]
  IC50: 198 nM

## Cc1ccc(C(=O)Nc2ccc(F)c(C(F)(F)F)c2)cc1Nc1ncnc2cnc(N3CCN(C)CC3)nc12 [III-297]
[1]
  IC50: 1 nM

## Cc1ccc(C(=O)Nc2cccc(C(F)(F)F)c2)cc1Nc1ncnc2cnc(N3CCN(C)CC3)nc12 [III-298]
[1]
  IC50: 1 nM

## COc1ccc(C(F)(F)F)cc1NC(=O)c1ccc(C)c(Nc2ncnc3cnc(N4CCN(C)CC4)nc23)c1 [III-299]
[1]
  IC50: 5 nM

## Cc1ccc(C(=O)Nc2ccc(Cl)c(C(F)(F)F)c2)cc1Nc1ncnc2cnc(N3CCN(C)CC3)nc12 [III-300]
[1]
  IC50: 4 nM

## Cc1ccc(C(=O)Nc2cccc(OC(F)(F)F)c2)cc1Nc1ncnc2cnc(N3CCN(C)CC3)nc12 [III-301]
[1]
  IC50: < 1 nM

## Cc1ccc(C(=O)NCc2ccc(C(C)(C)C)cc2)cc1Nc1ncnc2cnc(N3CCOCC3)nc12 [III-302]
[1]
  IC50: 115 nM

## Cc1ccc(C(=O)Nc2cccc(S(=O)(=O)N(C)C)c2)cc1Nc1ncnc2cnc(N3CCN(C)CC3)nc12 [III-303]
[1]
  IC50: 7 nM

## COc1ccc(C(F)(F)F)cc1NC(=O)c1ccc(C)c(Nc2ncnc3cnc(N4CCOCC4)nc23)c1 [III-304]
[1]
  IC50: < 1 nM

## Cc1ccc(C(=O)Nc2cccc(C(C)(C)C#N)c2)cc1Nc1ncnc2cnc(N3CCN(C)CC3)nc12 [III-305]
[1]
  IC50: 2 nM

## COc1ccc(C(C)(C)C)cc1NC(=O)c1ccc(C)c(Nc2ncnc3cnc(N4CCOCC4)nc23)c1 [III-306]
[1]
  IC50: 4 nM

## Cc1ccc(C(=O)NCc2ccc(C(F)(F)F)cc2)cc1Nc1ncnc2cnc(N3CCOCC3)nc12 [III-307]
[1]
  IC50: 114 nM

## Cc1ccc(C(=O)NCc2cccc(C(C)(C)C)c2)cc1Nc1ncnc2cnc(N3CCCCC3)nc12 [III-308]
[1]
  IC50: 47 nM

## Cc1ccc(C(=O)Nc2cccc(N(C)C)c2)cc1Nc1ncnc2cnc(N3CCOCC3)nc12 [III-309]
[1]
  IC50: 4 nM

## Cc1ccc(C(=O)NCc2cccc(C(C)(C)C)c2)cc1Nc1ncnc2cnc(N3CCN(C)CC3)nc12 [III-310]
[1]
  IC50: 50 nM

## Cc1ccc(C(=O)Nc2ccc(C#N)c(C(F)(F)F)c2)cc1Nc1ncnc2cnc(N3CCN(C)CC3)nc12 [III-311]
  IC50: 2 nM
